Data published in patent publication US20090005442A1, “CARBAMATE COMPOUNDS FOR USE IN PREVENTING OR TREATING NEURODEGENERATIVE DISORDERS” (priority 2001, published 2009).

Test system: PC12 cells
Experiment: PC12 cell serum withdrawal model (MTS cell survival assay)
Type: cell-based
Settings: control cells = 100%; for 7 Day Survival Rate (%): 10 μM applied at serum withdrawal and every 48 hr, MTS assay at 7 days; for 2 Day Survival Rate (%): 10 μM applied once at serum withdrawal, MTS assay at 2 days
Description: Serum withdrawal is a cytotoxic environmental challenge that results in cell death in cultured cell lines as well as in primary cells of various tissue origins, including nerve cells. In particular, pheochromocytoma (PC) 12 cells have been widely employed as an in vitro neuronal cell model for a wide variety of neurodegenerative and cell death related disorders (Muriel, et al, Mitochondrial free calcium levels (Rhod-2 fluorescence) and ultrastructural alterations in neuronally differentiated PC12 cells during ceramide-dependent cell death, J. Comp. Neurol., 2000, 426(2), 297-315; Dermitzaki, et al, Opioids transiently prevent activation of apoptotic mechanisms following short periods of serum withdrawal, J. Neurochem., 2000, 74(3), 960-969; Carlile, et al, Reduced apoptosis after nerve growth factor and serum withdrawal: conversion of tetrameric glyceraldehyde-3-phosphate dehydrogenase to a dimer, Mol. Pharmacol., 2000, 57(1), 2-12).
PC12 cells were cultured in sterile media (RPMI 1640) supplemented with 10% heat-inactivated horse serum and 5% fetal bovine serum (FBS). The culture medium also contained 1× Penicillin-Streptomycin-Neomycin antibiotic (50 μg, 50 μg, 100 μg, respectively). Medium was exchanged every other day and the cells were passed in log phase near confluence.
The control cells were cultured in regular media without any treatment. An enantiomer of Formula (Ib) or […] (10 μM) was mixed well in the medium and then applied to the cells. For the 2 day assay, an enantiomer of Formula (Ib) or […] (10 μM) was only applied to the cells once at the time of serum withdrawal. For the 7 day assay, an enantiomer of Formula (Ib) or Formula (IIb) (10 μM) was applied to the cells at the time of serum withdrawal and every 48 hr thereafter when cells were changed with fresh new serum-free medium. In the serum withdrawal group, the cells were cultured in serum-free medium with no additional enantiomer of Formula (Ib) or Formula (IIb). Cell survival was determined by the 3-(4,5-dimethylthiazol-2-yl)-5-(3-carboxy-methoxyphenyl)-2-(4-sulfophenyl)-2H-tetrazolium inner salt (MTS) assay at 2 or 7 days after serum withdrawal.
At the end of the experiment, cells were washed with fresh medium and incubated with MTS solution in a humidified 37° C. with 5% CO2 incubator for 1.5 hr. After the incubation period, the cells were immediately analyzed using a Softmax program (Molecular Devices). […] The assay is based on the cellular conversion of the tetrazolium salt, MTS, into a formazan that is soluble in tissue culture medium and measured directly at 490 nm in 96-well assay plates. The absorbance is directly proportional to the number of living cells in culture. The arbitrary absorbance reading in control cells is expressed as 100% survival rate.

| Compound | 7 Day Survival Rate (%) | 2 Day Survival Rate (%) |
| --- | --- | --- |
| NC(=O)OC[C@@H](O)c1ccccc1Cl [Formula (Ib)] | 79.9 ± 4.0^2% | 69.4 ± 1.7^1% |
| NC(=O)OC[C@H](OC(N)=O)c1ccccc1Cl [Formula (IIb)] | 85.2 ± 0.6^2% | 66.4 ± 5.4^1% |
